Experimental data: EP3298025B1, “NEW AMINO ACID SEQUENCES WITH MI[…] DERIVED FROM NAJA ATRA CARDIOTOXIN 1 (CTX-1)” (Università degli Studi di Parma, priority 2015, dated 2016)
Where “and” joins values, the source holds several entries; their conditions need not be identical. Equal values may be shown once. Residues, ends and D or L forms follow the SMILES beside them.

Assays:
[1] = test system: Acinetobacter baumanii (human strain); assay: micro-dilution in liquid medium and transplant on agar, Gram-negative bacteria; format: cell-based; conditions: 2 hours at 37°C, transplant on agar
Procedure: (§1) For each bacterial strain 3-5 morphologically similar colonies from fresh cultures were taken and inoculated in Brain Heart Infusion broth, then incubated at 37°C in agitation at 225 r.p.m. for about 3-4 hours. Then the bacterial suspension was centrifuged at 1000 G for 20 minutes and the pellet resuspended in phosphate buffer pH 7, 10 mM. The turbidity of the bacterial suspension was measured using a spectrophotometer with absorbance of 600 nm; the range 0.08-0.13 equates to about 10^8 cfu/ml. The bacterial suspension was diluted 1:100 in phosphate buffer 10mM to obtain a bacterial concentration of about 10^6 cfu/ml. Within 30 minutes 50 µl of the suspension (10^6 cfu/ml) were inoculated in each well of the microtiter plate, to obtain a bacterial concentration of about 5x10^5 cfu/ml.
(§2) The peptides ability to inhibit the bacterial growth in liquid cultures was tested. 50 µl of each peptides solutions of about 0,2-50 µM were added in microtiter plates with 96 wells with U-shaped bottom, containing the liquid culture medium and one of these bacterial strains: E coli ATCC 25922, Pseudomonas. Aeruginosa ATCC 27853, Proteus mirabilis ATCC 14153, Burkholderia cepacia ATCC 17759, Moraxella catharralis ATCC 25238 or other wild strains of Klebsiella pneumoniae subsp. pneumoniae, Enterobacter cloacae, Acinetobacter baumanii.
(§3) After 2 hours incubation at 37°C, the bacteria were transplanted on solid medium. As a growth reference, bacterial cultures were grown in absence of peptides.
(§4) The bacterial suspension and peptides were put in contact for 2 hours at 37°C, with differing concentrations of the peptide. Then 20 µl from each well of the plate were taken and transferred on solid culture medium, McConkey agar. The inoculum was uniformly distributed on the agar medium with aid of a sterile disposable handle. After an incubation time of 24 hours at 37°C, the bacterial colonies (cfu) were counted.

[2] = test system: Acinetobacter baumanii from cloaca (herpetological); assay: as above; format: cell-based; conditions: 2 hours at 37°C, transplant on agar
Procedure: as §1, §2, §3, §4

[3] = test system: Acinetobacter baumanii from cloaca (ornithological); assay: as above; format: cell-based; conditions: 2 hours at 37°C, transplant on agar
Procedure: as §1, §2, §3, §4

[4] = test system: Acinetobacter baumanii from skin (herpetological); assay: as above; format: cell-based; conditions: 2 hours at 37°C, transplant on agar
Procedure: as §1, §2, §3, §4

[5] = test system: Burkholderia cepacia ATCC 17759; assay: as above; format: cell-based; conditions: 2 hours at 37°C, transplant on agar
Procedure: as §1, §2, §3, §4

E. coli ATCC 25922 = assay: as above; format: cell-based; conditions: 2 hours at 37°C, transplant on agar
Procedure: as §1, §2, §3, §4

[6] = test system: Enterobacter cloacae (herpetological); assay: as above; format: cell-based; conditions: 2 hours at 37°C, transplant on agar
Procedure: as §1, §2, §3, §4

[7] = test system: Klebsiella pneumoniae subsp. pneumoniae (herpetological); assay: as above; format: cell-based; conditions: 2 hours at 37°C, transplant on agar
Procedure: as §1, §2, §3, §4

[8] = test system: Moraxella catharralis ATCC 25238; assay: as above; format: cell-based; conditions: 2 hours at 37°C, transplant on agar
Procedure: as §1, §2, §3, §4

[9] = test system: Proteus mirabilis ATCC 14153; assay: as above; format: cell-based; conditions: 2 hours at 37°C, transplant on agar
Procedure: as §1, §2, §3, §4

[10] = test system: Pseudomonas aeruginosa ATCC 27853; assay: as above; format: cell-based; conditions: 2 hours at 37°C, transplant on agar
Procedure: as §1, §2, §3, §4

[11] = test system: Enterococcus hirae ATCC 10541; assay: micro-dilution in liquid medium and transplant on solid medium, Gram-positive bacteria; format: cell-based; conditions: 2 hours at 37°C, transplant on agar
Procedure: as §1, with “0,08-0,13” for “0.08-0.13”, “10^6 cfu/ml” for “(10^6 cfu/ml)”
(§5) The peptides ability to inhibit the bacterial growth in liquid cultures was tested. 50 µl of each peptides solutions of about 0.2-50 µM were added in microtiter plates with 96 wells with liquid culture medium and one of these bacterial strains: Staphylococcus aureus ATCC 25923, MRSA ATCC 43300, Streptococcus agalactiae ATCC 13813 and Enterococcus hirae ATCC 10541. After 2 hours of incubation at 37°C, bacterial suspensions were put on solid culture medium. Bacterial cultures were cultivated without peptides as growth control.
(§6) The bacterial suspension and differing peptides concentrations were put in contact for about 2 hours at 37°C. After this incubation, 20 µl from each well of the plate were transplanted on solid culture medium, Columbia agar with 5% of bovine erythrocytes for Gram-positive bacteria. The inoculum was evenly distributed on the agar medium with the aid of a sterile disposable handle. After an incubation time of 24 hours at 37°C, the bacterial colonies (cfu) were counted.

[12] = test system: Staphylococcus aureus ATCC 22953; assay: as above; format: cell-based; conditions: 2 hours at 37°C, transplant on agar
Procedure: as §1, with “0,08-0,13” for “0.08-0.13”, “10^6 cfu/ml” for “(10^6 cfu/ml)”
as §5, §6

[13] = test system: Streptococcus agalactiae ATCC 13813; assay: as above; format: cell-based; conditions: 2 hours at 37°C, transplant on agar
Procedure: as §1, with “0,08-0,13” for “0.08-0.13”, “10^6 cfu/ml” for “(10^6 cfu/ml)”
as §5, §6

MRSA ATCC 43300 = assay: antimicrobial activity in presence of Muller-Hinton 20%; format: cell-based, Staphylococcus aureus; conditions: 20% of Muller-Hinton medium
Procedure: This example verifies the peptides antimicrobial activity in presence of a concentration of 20% of Muller-Hinton liquid medium, characterized by the presence of salts with high concentration.
Peptides were tested in the ability to inhibit bacterial growth in liquid medium. 50 µl of peptides at a concentration between 3.1 µg/ml (NCP-0=1.4µM; NCP-2=[…]; NCP-3=1.3 µM) and 100 µg/ml (NCP-0=46.3 µM; NCP-2=43.2 µM; NCP-3=41.6 µM) were added in microtiter plate wells with phosphate buffer 10 mM with Muller-Hinton liquid medium al the final concentration of 20% and one of these bacteria: E. coli ATCC 25922, Pseudomonas aeruginosa ATCC 27853, Staphylococcus aureus ATCC 25923 and Staphylococcus aureus methicillin resistant ATCC 43300. After 2 hours incubation at 37°C, bacteria were transplanted on solid culture medium. Bacterial cultures were cultivated without peptides as growth control.

## CC[C@H](C)[C@H](NC(=O)[C@H](CCCCN)NC(=O)[C@H](Cc1ccc(O)cc1)NC(=O)[C@H](CS)NC(=O)[C@H](CC(C)C)NC(=O)[C@H](CC(N)=O)NC(=O)[C@H](CCCCN)NC(=O)CNC(=O)[C@H](C)NC(=O)[C@@H]1CCCN1C(=O)[C@H](CS)NC(=O)[C@@H](NC(=O)[C@H](CCCCN)NC(=O)[C@H](CO)NC(=O)[C@H](C)NC(=O)[C@@H](NC(=O)[C@@H]1CCCN1C(=O)[C@@H](NC(=O)[C@H](CC(C)C)NC(=O)[C@@H](N)CCCCN)[C@@H](C)CC)[C@@H](C)CC)[C@@H](C)O)C(=O)O [NCP-0, K LIPIA SKT CPA GKN LCY KI] (H-KLIPIASKTCPAGKNLCYKI-OH; N-terminus and C-terminus assumed)
[1]
  LD90: 123.77 µg/ml and 57.3 µM
  LD99: 131.55 µg/ml and 61 µM
[2]
  LD90: 142.80 µg/ml and 66.1 µM
  LD99: 202.98 µg/ml and 94 µM
[3]
  LD90: 126.205 µg/ml and 58.4 µM
  LD99: 127,26 µg/ml and 59 µM
[4]
  LD99: 117.96 µg/ml and 54.6 µM
[5]
  LD90: 39.35 µg/ml and 17.8 µM
  LD99: 39.43 µg/ml and 18.3 µM
E. coli ATCC 25922
  LD90: 152.02 µg/ml and 70 µM
[6]
  LD90: > 100 µg/ml and > 46.3 µM
  LD99: > 200 µg/ml and > 92.6 µM
[7]
  LD90: > 100 µg/ml and > 46.3 µM
  LD99: > 200 µg/ml and > 92.6 µM
[8]
  LD90: 0.8 µg/ml and 0.4 µM
  LD99: 1.6 µg/ml and 0.7 µM
[9]
  LD90: > 100 µg/ml and > 46.3 µM
  LD99: > 200 µg/ml and > 92.6 µM
[10]
  LD90: > 100 µg/ml and > 46.3 µM
  LD99: > 200 µg/ml and > 92.6 µM
[11]
  LD90: > 100 µg/ml and > 46.3 µM
  LD99: > 200 µg/ml and > 92.6 µM
[12]
  LD90: > 100 µg/ml and > 46.3 µM
  LD99: > 200 µg/ml and > 92.6 µM
[13]
  LD90: 100 µg/ml and 46.3 µM
  LD99: > 100 µg/ml and > 46.3 µM
MRSA ATCC 43300; peptide 3.1 µg/ml
  Antimicrobial activity (% to control): 0%
MRSA ATCC 43300; peptide 6.3 µg/ml
  Antimicrobial activity (% to control): 0%
MRSA ATCC 43300; peptide 12.5 µg/ml
  Antimicrobial activity (% to control): 0%
MRSA ATCC 43300; peptide 100 µg/ml
  Antimicrobial activity (% to control): 0%
